Data on 15 compounds can be found in PubChem BioAssay (NCI).

Structures are written as SMILES. “And” between values parts separate entries of the source, which are not always exact repeats. Identical values can stand only once.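 Following 48 hours of exposure in 96-well plates, responses at five concentrations were used to interpolate endpoints linearly. Abbreviation: GI50, concentration required for 50% inhibition of growth. At the TGI there is no net growth.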

The first test deals with SF-539 CNS. Briefly: NCI-60 cell line screen, 48 h.
Regarding `CN[C@@H](C)C(=O)N[C@H](C(=O)N1CCC[C@H]1C(=O)Nc1sc(-c2ncco2)nc1-c1ccccc1)C1CCCCC1`, the GI50 was 0.957 µM and the TGI worked out at 17.8 µM.

With `CC1=C2[C@@H](CC1)[C@]1(C)O[C@@](c3ccccc3)(C[C@H]1OC(=O)CO)[C@H]2OC(=O)/C=C/c1ccccc1`, the GI50 was 16.9 µM and the TGI came to 35.8 µM.

With `NC(=O)c1csc(C2OC(CO)C(O)C2O)n1` (configuration not stated), the GI50 is 47.9 µM and the TGI worked out at 3590 µM.

As to `CCCN(CCS(C)(=O)=O)Cc1ccc(-c2ccc3ncnc(Nc4ccc(OCc5cccc(F)c5)c(Cl)c4)c3c2)o1`, the GI50 is > 25 µM and the TGI was > 25 µM.

On to `CC(C)C[C@H](NC(=O)CNC(=O)c1cc(Cl)ccc1Cl)B1OC(=O)CC(CC(=O)O)(C(=O)O)O1` (some centres not stated), for which the GI50 is 0.023 µM and the TGI was determined as 0.0528 µM.

Regarding `OCC12C3C4C5C3C1C5C42` (configuration not stated), the TGI is > 100 µM.

In the case of `CCc1ccc2c(c1)N(CCO)C1=C(C(=O)OC1)C2c1cccc(Br)c1` (configuration not stated), the GI50 is 0.458 µM and the TGI is 10.1 µM.

With `COc1ccc(-c2nc(Nc3cc(C)[nH]n3)c3ccccc3n2)cc1`, the GI50 is 1.47 µM and the TGI was 4.15 µM.

As to `O=C1OC(=O)C(=C\c2ccc3c(c2)OCO3)/C1=C/c1ccc2c(c1)OCO2`, the TGI is > 100 µM.

In the case of `CC(C)NCCCn1c(Sc2cc3c(cc2I)OCO3)nc2c(N)ncnc21`, the GI50 was 0.858 µM and the TGI was > 68.4 µM.

Take `CN1C(=O)N(C)C2C1NN=c1s/c(=C\c3ccc(C(F)(F)F)cc3)c(=O)n12` (configuration not stated): the GI50 was 0.983 µM and the TGI worked out at 6.26 µM.

For `N#Cc1c(N2CCOCC2)nc(=S)[nH]c1-c1ccco1`, the GI50 is 6.34 µM and the TGI was found to be 69.9 µM.

Turning to `C[C@@H]1CN(Cc2ccc(F)cc2)[C@@H](C)CN1C(=O)c1cc2c(C(=O)C(=O)N(C)C)cn(C)c2cc1Cl`, the GI50 was 14.9 µM and the TGI stood at 29.7 µM.

As to `COc1ccccc1-c1cc(=O)c2cc(C)cnc2[nH]1`, the TGI was > 100 µM.

For `O=[N+]([O-])c1ccc(C=Cc2ccccc2)cc1.[C-]#[O+].[C-]#[O+].[C-]#[O+].[Cr]`, the GI50 is > 100 µM and the TGI is > 100 µM.

For another test, the system named is SR leukemia. As to the kind of experiment: NCI-60 cell line screen, 48 h.
With `CN[C@@H](C)C(=O)N[C@H](C(=O)N1CCC[C@H]1C(=O)Nc1sc(-c2ncco2)nc1-c1ccccc1)C1CCCCC1`, the GI50 was 14 µM and the TGI was 54.7 µM.

With `CC1=C2[C@@H](CC1)[C@]1(C)O[C@@](c3ccccc3)(C[C@H]1OC(=O)CO)[C@H]2OC(=O)/C=C/c1ccccc1`, the GI50 was 12 µM and the TGI stood at 44.8 µM.

Regarding `NC(=O)c1csc(C2OC(CO)C(O)C2O)n1` (configuration not stated), the GI50 was 103 µM and the TGI is > 6090 µM.

For the compound `CCCN(CCS(C)(=O)=O)Cc1ccc(-c2ccc3ncnc(Nc4ccc(OCc5cccc(F)c5)c(Cl)c4)c3c2)o1`, the GI50 is > 20.9 µM and the TGI was > 25 µM.

As for `CC(C)C[C@H](NC(=O)CNC(=O)c1cc(Cl)ccc1Cl)B1OC(=O)CC(CC(=O)O)(C(=O)O)O1` (some centres not stated), the GI50 was 0.0384 µM and the TGI was > 100 µM.

For `OCC12C3C4C5C3C1C5C42` (configuration not stated), the TGI was > 100 µM.

`CCc1ccc2c(c1)N(CCO)C1=C(C(=O)OC1)C2c1cccc(Br)c1` (configuration not stated): the GI50 is 0.409 µM and the TGI came to 20.3 µM.

In the case of `COc1ccc(-c2nc(Nc3cc(C)[nH]n3)c3ccccc3n2)cc1`, the GI50 was 0.581 µM and the TGI was found to be 25.4 µM.

With `O=C1OC(=O)C(=C\c2ccc3c(c2)OCO3)/C1=C/c1ccc2c(c1)OCO2`, the TGI was > 90.8 µM.

As for `CC(C)NCCCn1c(Sc2cc3c(cc2I)OCO3)nc2c(N)ncnc21`, the GI50 is 0.0602 µM and the TGI was > 100 µM.

On to `CN1C(=O)N(C)C2C1NN=c1s/c(=C\c3ccc(C(F)(F)F)cc3)c(=O)n12` (configuration not stated), for which the GI50 is 0.329 µM and the TGI is > 100 µM.

Consider `N#Cc1c(N2CCOCC2)nc(=S)[nH]c1-c1ccco1`, for which the GI50 is 2.8 µM and the TGI was 51.7 µM.

In the case of `C[C@@H]1CN(Cc2ccc(F)cc2)[C@@H](C)CN1C(=O)c1cc2c(C(=O)C(=O)N(C)C)cn(C)c2cc1Cl`, the GI50 was 13.4 µM and the TGI is 39.2 µM.

As to `COc1ccccc1-c1cc(=O)c2cc(C)cnc2[nH]1`, the TGI is > 100 µM.

As to `O=[N+]([O-])c1ccc(C=Cc2ccccc2)cc1.[C-]#[O+].[C-]#[O+].[C-]#[O+].[Cr]`, the GI50 was 2.49 µM and the TGI was > 100 µM.

The test system of a further test is COLO 205 colon. Briefly: NCI-60 cell line screen, 48 h.
As to `CN[C@@H](C)C(=O)N[C@H](C(=O)N1CCC[C@H]1C(=O)Nc1sc(-c2ncco2)nc1-c1ccccc1)C1CCCCC1`, the GI50 is 18.7 µM and the TGI was determined as 37.9 µM.

For `CC1=C2[C@@H](CC1)[C@]1(C)O[C@@](c3ccccc3)(C[C@H]1OC(=O)CO)[C@H]2OC(=O)/C=C/c1ccccc1`, the GI50 is 16 µM and the TGI is 33.6 µM.

Regarding `NC(=O)c1csc(C2OC(CO)C(O)C2O)n1` (configuration not stated), the GI50 is 4.76 µM; the TGI is > 31.6 µM and 6210 µM.

For `CCCN(CCS(C)(=O)=O)Cc1ccc(-c2ccc3ncnc(Nc4ccc(OCc5cccc(F)c5)c(Cl)c4)c3c2)o1`, the GI50 was > 25 µM and the TGI was > 25 µM.

On to `CC(C)C[C@H](NC(=O)CNC(=O)c1cc(Cl)ccc1Cl)B1OC(=O)CC(CC(=O)O)(C(=O)O)O1` (some centres not stated), for which the GI50 was 0.0868 µM and the TGI amounted to 22.3 µM.

In the case of `OCC12C3C4C5C3C1C5C42` (configuration not stated), the TGI was > 100 µM.

On to `CCc1ccc2c(c1)N(CCO)C1=C(C(=O)OC1)C2c1cccc(Br)c1` (configuration not stated), for which the GI50 was 0.358 µM and the TGI came to 1.42 µM.
